Reference: article PMC13534789, “Molecular Glue Degraders Enhance CAPRIN1‐Dependent Lysosomal Degradation of APP and Reduce Amyloid β in Alzheimer's Disease” (Advanced Science, 2026)

What was measured:
rhCAPRIN1 and rhAPP = assay: ThermoFluor assay with recombinant proteins; format: binding, human; details: proteins 5 µM
Description: For the Thermofluor assay, Huynh's protocol was used with minor modifications. In brief, all proteins were used at a final concentration of 5 µM for this assay, and GloMelt Thermal Shift Protein Stability Kit (Biotium) was used at a final concentration of 0.5X. All experiments were carried out with QuantStudio 6 Flex (Applied Biosystems). SYBR was used as a reporter, and ROX was used as a passive reference according to the manufacturer's directions. Melting curve data were exported, followed by analysis with Boltzmann's sigmoidal curve in GraphPad Prism.

LN229 and HCT116 cells = assay: Cancer cell viability; format: cell-based, human
[1] = biological target: T1, APP695–CAPRIN1 interaction (Homo sapiens, UniProt P05067+Q14444); assay: SPR, APP695 onto immobilized CAPRIN1 with 0152; format: binding; details: equimolar 0152 vs no compound
T1 construct: 10xHis‐MBP‐APP695 (full‐length) alone was loaded; 10xHis (N); MBP (followed by a 3C site) (N); 10xHis (followed by a 3C site) (N); made in house; host or cells: Tni (Hi5) insect cells, baculovirus
T1 sequence (P05067 18-695 isoform P05067-4 limits assumed): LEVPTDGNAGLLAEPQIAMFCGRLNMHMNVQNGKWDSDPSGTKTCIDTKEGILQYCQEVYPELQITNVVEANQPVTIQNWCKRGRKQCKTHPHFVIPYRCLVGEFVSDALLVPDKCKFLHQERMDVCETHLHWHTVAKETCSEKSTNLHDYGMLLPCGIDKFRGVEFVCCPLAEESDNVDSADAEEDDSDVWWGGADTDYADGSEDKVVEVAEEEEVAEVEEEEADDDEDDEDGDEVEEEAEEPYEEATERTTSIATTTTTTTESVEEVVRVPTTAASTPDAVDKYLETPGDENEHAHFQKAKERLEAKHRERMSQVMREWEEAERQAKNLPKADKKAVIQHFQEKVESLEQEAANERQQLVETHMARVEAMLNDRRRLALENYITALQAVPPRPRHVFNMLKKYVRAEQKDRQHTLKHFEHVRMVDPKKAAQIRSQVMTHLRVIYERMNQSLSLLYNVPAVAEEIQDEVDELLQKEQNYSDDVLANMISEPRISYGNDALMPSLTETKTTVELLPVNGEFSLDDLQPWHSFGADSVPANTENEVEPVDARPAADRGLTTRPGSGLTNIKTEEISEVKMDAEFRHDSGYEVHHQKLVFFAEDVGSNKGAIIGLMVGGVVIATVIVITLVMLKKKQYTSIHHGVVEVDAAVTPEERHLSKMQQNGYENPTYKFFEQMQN
T1 sequence (Q14444 whole entry): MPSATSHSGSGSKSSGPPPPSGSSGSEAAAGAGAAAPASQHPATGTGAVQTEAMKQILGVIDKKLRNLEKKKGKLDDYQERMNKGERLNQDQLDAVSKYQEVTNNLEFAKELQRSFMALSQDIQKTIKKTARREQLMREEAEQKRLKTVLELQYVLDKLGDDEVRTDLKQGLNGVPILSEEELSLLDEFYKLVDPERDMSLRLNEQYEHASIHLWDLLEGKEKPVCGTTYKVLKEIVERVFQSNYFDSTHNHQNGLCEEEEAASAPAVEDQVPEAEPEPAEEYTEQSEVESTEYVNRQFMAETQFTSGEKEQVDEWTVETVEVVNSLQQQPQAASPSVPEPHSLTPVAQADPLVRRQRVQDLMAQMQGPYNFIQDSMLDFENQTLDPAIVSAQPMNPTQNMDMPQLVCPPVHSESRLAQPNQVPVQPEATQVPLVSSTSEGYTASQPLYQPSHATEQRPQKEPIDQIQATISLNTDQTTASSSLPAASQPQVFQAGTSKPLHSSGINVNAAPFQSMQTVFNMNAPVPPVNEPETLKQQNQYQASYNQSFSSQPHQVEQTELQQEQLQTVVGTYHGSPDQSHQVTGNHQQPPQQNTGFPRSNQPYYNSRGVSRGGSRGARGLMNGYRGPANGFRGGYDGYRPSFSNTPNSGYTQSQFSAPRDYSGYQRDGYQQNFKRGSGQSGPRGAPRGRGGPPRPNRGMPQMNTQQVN
Description: SPR experiments were conducted to investigate the interaction between APP695 and CAPRIN1 proteins using a Biacore T200 instrument (Cytiva). Both proteins were expressed in Tni (Hi5) insect cells and purified to homogeneity via tandem affinity and ion‐exchange. Protein purity and integrity were confirmed by SDS‐PAGE and size‐exclusion chromatography prior to analysis. All experiments were performed in a running buffer consisting of 50 mM HEPES at […], 100 mM KCl, 10% glycerol, and 0.01% (v/v) Tween‐20 supplemented with 0.1% (w/v) Sarkosyl (pH 7.4). APP695 was serially diluted in running buffer to final concentrations of 15, 5, 1, and 0.3 µM. Chip Preparation: A CM5 sensor chip (Cytiva) was activated using a 1:1 (v/v) mixture of 0.1 M N‐hydroxysuccinimide (NHS) and 0.1 M N‐ethyl‐N′‐(3‐dimethylaminopropyl) carbodiimide (EDC) to generate reactive ester groups. CAPRIN1 was diluted to 50 µg/mL in 10 mM Hepes‐KOH buffer (pH 6.0) and immobilized on the chip surface via standard amine coupling to achieve immobilization. Unreacted sites were blocked with 1 M ethanolamine‐HCl (pH 8.5). A reference flow cell was prepared similarly but without protein immobilization to control for non‐specific binding and bulk refractive index changes. Binding assay: Binding interactions were measured at 25°C with a flow rate of 30 µL/min. APP695 solutions were injected over the CAPRIN1‐immobilized and reference flow cells for 45 s (association phase), followed by a 240 s dissociation phase with running buffer alone. Internal control injections for one concentration of APP695 were performed to ensure reproducibility for every round of the experiment. […] APP (1–300) was also tested for binding to CAPRIN1 under identical conditions. To assess potential non‐specific interactions, 0043 and 0152 were tested for binding to APP‐695 captured on a CM5 chip using a steady‐state model. Data analysis: Sensograms were processed using Biacore T200 Evaluation Software. […]

iPSC‐Ns = assay: Cell viability / cytotoxicity of iPSC-derived neurons; format: cell-based, human; details: AG27606-Ns, 10 µM, 72 h
Description: Cytotoxicity test was conducted using Neutral Red Uptake assay. In brief, iPSC‐Ns seeded in 96 well plates (1 × 10^5 cells/well) were treated dose‐dependently for 5 days. Cells were washed with PBS containing CaCl2 and MgCl2 followed by the addition of Neutral red solution (40 µg/mL in PBS, Sigma–Aldrich) and incubation at 37°C for 3 h. Cells were then washed with PBS containing CaCl2 and MgCl2 two times and de‐stained using with Neutral red de‐staining solution on a plate shaker for 30 min, followed by reading at 540 nm with a Microplate reader. Cell viability was determined using the CellTiter‐Glo Luminescent Cell Viability Assay (Promega) following the manufacturer's instructions. […]

| Structure (SMILES) | Thermal shift of recombinant CAPRIN1 and APP (rhCAPRIN1 and rhAPP) | Cancer cell growth (LN229 and HCT116 cells) | Decrease of dissociation rate constant (Koff) of APP695–CAPRIN1 [1] | Increase of association rate constant (Kon) of APP695–CAPRIN1 [1] | Reduction of equilibrium dissociation constant (KD) of APP695–CAPRIN1 [1] | Neuronal toxicity (CellTiter-Glo) (iPSC‐Ns) |
| --- | --- | --- | --- | --- | --- | --- |
| N#Cc1cccc(NC(=O)Nc2nc3ccc(C(=O)N4CCOCC4)cc3s2)c1 [compound 0043] | thermal shifts for both proteins | no effects |  |  |  |  |
| COc1cccc(NC(=O)Nc2nc3ccc(C(=O)N4CCOCC4)cc3s2)c1 [compound 0152] |  |  | 10 fold | 3.5 fold | 36 fold | without neuronal toxicity |
